Measurements reported in publication PMC6736568, “Discovery of Novel Anti-cryptosporidial Activities From Natural Products by in vitro High-Throughput Phenotypic Screening” (Frontiers in Microbiology, 2019).
Structures can show the parent of a compound that is named as a salt. Where two headings read alike, the source gives them in different places.

What was measured:
Cryptosporidium parvum = experiment: qRT-PCR assay of the growth of C. parvum in vitro in HCT-8 host cells (primary and secondary screening, EC50); format: cell-based; details: for Inhibition (%): primary screening at 10 uM; for % Inhibition (3.3 uM): secondary screening at 3.3 uM
[1] = primary screening at 10 uM, from Hs18S ΔCT
[2] = primary screening at 10 uM, treated vs control

| Compound | Inhibition (%) (Cryptosporidium parvum) | Hs18S ΔCT (HCT-8 host cells (Hs18S)) | Cytotoxicity (%) (HCT-8 host cells (Hs18S); 10 µM) | Cytotoxicity (%) (HCT-8 host cells (Hs18S); [1]) | Hs18S ΔCT (HCT-8 host cells (Hs18S); [2]) | % Inhibition (3.3 uM) (Cryptosporidium parvum) |
| --- | --- | --- | --- | --- | --- | --- |
| CC(=O)OC/C=C(\C)CC/C=C(\C)CC/C=C(\C)CC/C=C(\C)CC/C=C(\C)CC/C=C(\C)CC/C=C(\C)CC/C=C(\C)CCC=C(C)C [SOLANESYL ACETATE] | 15.24% | -0.20 | -14.8 |  |  |  |
| CC1=CC(=O)[C@H]2C(C)(C)CCC[C@]2(C)[C@@]1(O)CCc1ccoc1 [SOLIDAGENONE] | -14.64% |  |  | 39.6% | 0.73 |  |
| CN[C@@H]1[C@H](O)[C@H](NC)[C@H]2O[C@@]3(O)C(=O)C[C@@H](C)O[C@H]3O[C@@H]2[C@H]1O.Cl [SPECTINOMYCIN HYDROCHLORIDE] | -6.16% |  |  | -42.8% | -0.51 |  |
| CCNC(=O)CC[C@H](N)C(=O)[O-].[K+] [THEANINE POTASSIUM] | -54.47% |  |  | -36.3% | -0.45 |  |
| C[C@@H](O)[C@H](N)C(=O)O [THREONINE (L)] | -20.50% |  |  | -19.5% | -0.26 |  |
| COC(=O)C1(C)CCCC2(C)c3ccc(O)c(C(C)C)c3CCC12 (stereo not drawn) [TOTAROL-19-CARBOXYLIC ACID, METHYL ESTER] | -12.62% |  |  | 22.4% | 0.37 |  |
| COc1cc2c3cc1Oc1cc(ccc1O)C[C@@H]1c4c(cc(OC)c(O)c4Oc4ccc(cc4)C[C@@H]3N(C)CC2)CC[N+]1(C)C.Cl.O.O.O.O.O.[Cl-] [TUBOCURARINE CHLORIDE] | 37.53% |  |  | -22.2% | -0.29 |  |
| CC[C@H]1OC(=O)C[C@@H](O)[C@H](C)[C@@H](O[C@@H]2O[C@H](C)[C@@H](O[C@H]3C[C@@](C)(O)[C@@H](O)[C@H](C)O3)[C@H](N(C)C)[C@H]2O)[C@@H](CC=O)C[C@@H](C)C(=O)/C=C/C(C)=C/[C@@H]1CO[C@@H]1O[C@H](C)[C@@H](O)[C@@H](OC)[C@H]1OC [TYLOSIN TARTRATE] | 25.75% |  |  | -14.2% | -0.19 |  |
| O=c1ccn([C@@H]2O[C@H](COP(=O)([O-])OP(=O)([O-])OP(=O)([O-])O)[C@@H](O)[C@H]2O)c(=O)[nH]1.[Na+].[Na+].[Na+] [URIDINE TRIPHOSPHATE TRISODIUM] | 91.48% |  |  | 14.5% | 0.23 | 17% |
| COC(=O)C1=CO[C@@H](O[C@@H]2O[C@H](CO)[C@@H](O)[C@H](O)[C@H]2O)[C@H]2[C@@H]1C(=O)C[C@@H]2C [VERBENALIN] | -4.48% |  |  | 81.7% | 2.45 |  |
| O.O=C(O)[C@@H]1[C@H]2C[C@H]3c4[nH]c5ccccc5c4CCN3C[C@@H]2CC[C@@H]1O [YOHIMBIC ACID HYDRATE] | -21.23% |  |  | -20.7% | -0.27 |  |
| C[C@H](CCC(=O)O)[C@H]1CC[C@H]2[C@@H]3C[C@H](O)[C@@H]4C[C@H](O)CC[C@]4(C)[C@H]3CC[C@]12C [alpha-HYDROXYDEOXYCHOLIC ACID] | -6.93% |  |  | -43.0% | -0.52 |  |
| ABAMECTIN (avermectin B1a shown) | 97.65% |  |  | 33.4% | 0.59 | -19% |
| AGELASINE (stereochemistry of diterpene unknown) | 43.55% |  |  | 16.8% | 0.27 |  |
| AVERMECTIN A1a | 97.32% |  |  | 1.6% | 0.02 | -85% |
| AVOCADYNOFURAN | -19.78% |  |  | 1.4% | 0.02 |  |
| AVOCATIN B | 4.87% |  |  | 21.9% | 0.36 |  |
| BACITRACIN | -21.81% |  |  | 1.4% | 0.02 |  |
| BERBAMINE HYDROCHLORIDE | 6.86% |  |  | -15.6% | -0.21 |  |
| BICUCULLINE(-) METHIODIDE | -0.49% |  |  | -4.9% | -0.07 |  |
